In patent US10927146B2, “Peptidyl ketoamides as inhibitors of rhomboid proteases” (priority 2017, dated 2021):
“Also recorded” adds a separate entry of the source.

How the values were obtained:
[1] = molecular target: model rhomboid protease GlpG (Escherichia coli, UniProt P09391); assay: In vitro inhibition of rhomboid protease GlpG (IC50 and Ki, as described in Ticha et al., 2017); assay type: biochemical, E. coli; details: for Ki: read-out: Ki Range
Description: The in vivo activity of the compounds against GlpG according to the invention is in the low nanomolar range (FIG. 1), which is up to three orders of magnitude better than any other currently used rhomboid inhibitors. The co-crystal structures of these compounds with rhomboid protease (FIG. 2) show their mode of binding into the active site of rhomboid. Without wishing to be bound by such a theory, it appears that the ketoamide warhead covalently bonds to the catalytic serine, and extensively hydrogen bonds throughout the active site. The tail at the ketoamide nitrogen interacts with the S2′ pocket of rhomboid, engaging in a number of van der Waals contacts.

[2] = tested on: Plasmodium falciparum rhomboid 4 (PfROM4); assay: PfROM4 cell culture assay: shedding of EBA175 in transfected HEK293ET cells; assay type: cell-based; details: HEK293ET cells transfected with PfROM4 and substrate EBA175; approximate, FIG. 3
Description: (A) HEK293ET cells were transfected with plasmids encoding PfROM4 and its substrate EBA175, and the shedding of EBA175 by PfROM4 into the medium under various concentrations of Compound 16 was quantitated by near-infrared fluorescence detected Western blotting. (B) Dose-response analysis of PfROM4 inhibition by Compound 16.

Sequence of model rhomboid protease GlpG (P09391 whole entry): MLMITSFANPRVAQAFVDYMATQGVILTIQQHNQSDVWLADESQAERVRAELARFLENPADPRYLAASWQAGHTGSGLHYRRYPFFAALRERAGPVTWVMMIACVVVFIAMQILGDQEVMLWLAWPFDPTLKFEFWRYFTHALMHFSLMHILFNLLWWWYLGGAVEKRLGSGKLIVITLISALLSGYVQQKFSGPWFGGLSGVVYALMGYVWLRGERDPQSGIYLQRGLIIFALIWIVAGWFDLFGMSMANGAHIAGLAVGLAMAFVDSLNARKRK

Compound | Ki [1] [nM] | also measured
CC(=O)C(=O)[C@H](CCCNC(=N)N)NC(=O)[C@@H](NC(=O)[C@H](CCCNC(=N)N)NC(=O)[C@H](Cc1cnc[nH]1)NN[C@@H](C)C(=O)C(=O)NCCc1ccccc1)C(C)C [Compound 9] | 10 to 100 | 
CC(=O)C(=O)[C@H](CCCNC(=N)N)NC(=O)[C@@H](NC(=O)[C@H](CCCNC(=N)N)NC(=O)[C@H](Cc1cnc[nH]1)NN[C@@H](C)C(=O)C(=O)NCc1cc(C)ccc1C)C(C)C [Compound 10] | 10 to 100 | 
CC(=O)C(=O)[C@H](CCCNC(=N)N)NC(=O)[C@@H](NC(=O)[C@H](CCCNC(=N)N)NC(=O)[C@H](Cc1cnc[nH]1)NN[C@@H](C)C(=O)C(=O)NCCCCc1ccccc1)C(C)C [Compound 11] | 10 to 100 | 
CC(=O)C(=O)[C@@H](NC(=O)[C@H](CCCNC(=N)N)NC(=O)[C@H](Cc1cnc[nH]1)NN[C@@H](C)C(=O)C(=O)NCCc1ccccc1)C(C)C [Compound 12] |  | IC50 [1]: 550 nM
CC(=O)C(=O)[C@H](CCCNC(=N)N)NC(=O)[C@@H](NC(=O)[C@H](Cc1c[nH]c2ccccc12)NC(=O)[C@H](Cc1cnc[nH]1)NN[C@@H](C)C(=O)C(=O)NCCCCc1ccccc1)C(C)C [Compound 16] |  | IC50 of PfROM4 inhibition [2]: micro- to submicromolar range; also recorded: micromolar to submicromolar concentrations
